pIC50: −log10 of the molar value. Bounds are passed on as bounds.

One assay deals with JAK2 (Homo sapiens, UniProt O60674). The experiment in a line: JAK2 inhibition (IC50). It counts as biochemical. To be noted: Compound A or a pharmaceutically acceptable salt thereof.
In the next assay the target is JAK1 (Homo sapiens, UniProt P23458). Kind of assay: JAK1 inhibition (IC50). The settings on record: Compound A or a pharmaceutically acceptable salt thereof. It counts as biochemical.
Chain of JAK1 (P23458 whole entry): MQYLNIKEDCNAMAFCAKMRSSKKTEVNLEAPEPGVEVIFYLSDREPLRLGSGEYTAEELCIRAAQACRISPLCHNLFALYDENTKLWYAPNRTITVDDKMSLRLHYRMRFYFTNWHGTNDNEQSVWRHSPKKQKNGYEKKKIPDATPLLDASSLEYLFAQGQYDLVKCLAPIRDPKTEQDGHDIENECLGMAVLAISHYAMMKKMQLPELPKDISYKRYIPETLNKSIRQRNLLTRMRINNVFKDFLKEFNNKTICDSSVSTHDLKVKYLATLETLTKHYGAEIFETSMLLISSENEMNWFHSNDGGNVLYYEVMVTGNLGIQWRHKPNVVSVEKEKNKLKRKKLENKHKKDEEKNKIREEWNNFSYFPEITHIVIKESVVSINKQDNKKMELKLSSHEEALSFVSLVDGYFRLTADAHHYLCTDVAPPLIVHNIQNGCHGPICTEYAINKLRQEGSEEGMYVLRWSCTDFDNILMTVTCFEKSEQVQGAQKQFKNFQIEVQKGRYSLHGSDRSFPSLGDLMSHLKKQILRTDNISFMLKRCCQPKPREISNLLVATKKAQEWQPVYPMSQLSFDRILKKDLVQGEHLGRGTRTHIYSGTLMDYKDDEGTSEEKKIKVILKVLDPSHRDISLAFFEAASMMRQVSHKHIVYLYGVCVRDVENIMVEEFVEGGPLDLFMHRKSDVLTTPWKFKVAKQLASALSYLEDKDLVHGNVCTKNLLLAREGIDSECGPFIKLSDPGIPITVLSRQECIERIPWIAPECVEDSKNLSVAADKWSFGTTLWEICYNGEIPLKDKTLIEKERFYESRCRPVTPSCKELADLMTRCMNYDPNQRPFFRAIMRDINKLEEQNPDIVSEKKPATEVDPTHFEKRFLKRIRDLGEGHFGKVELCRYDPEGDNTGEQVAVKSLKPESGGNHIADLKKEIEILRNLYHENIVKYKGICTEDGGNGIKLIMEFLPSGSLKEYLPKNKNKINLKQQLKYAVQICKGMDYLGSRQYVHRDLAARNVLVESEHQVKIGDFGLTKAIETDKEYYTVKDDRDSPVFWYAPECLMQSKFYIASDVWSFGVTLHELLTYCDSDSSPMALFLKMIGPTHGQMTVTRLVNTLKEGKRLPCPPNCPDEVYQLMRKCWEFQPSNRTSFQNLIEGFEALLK

Chain of JAK2 (O60674 whole entry): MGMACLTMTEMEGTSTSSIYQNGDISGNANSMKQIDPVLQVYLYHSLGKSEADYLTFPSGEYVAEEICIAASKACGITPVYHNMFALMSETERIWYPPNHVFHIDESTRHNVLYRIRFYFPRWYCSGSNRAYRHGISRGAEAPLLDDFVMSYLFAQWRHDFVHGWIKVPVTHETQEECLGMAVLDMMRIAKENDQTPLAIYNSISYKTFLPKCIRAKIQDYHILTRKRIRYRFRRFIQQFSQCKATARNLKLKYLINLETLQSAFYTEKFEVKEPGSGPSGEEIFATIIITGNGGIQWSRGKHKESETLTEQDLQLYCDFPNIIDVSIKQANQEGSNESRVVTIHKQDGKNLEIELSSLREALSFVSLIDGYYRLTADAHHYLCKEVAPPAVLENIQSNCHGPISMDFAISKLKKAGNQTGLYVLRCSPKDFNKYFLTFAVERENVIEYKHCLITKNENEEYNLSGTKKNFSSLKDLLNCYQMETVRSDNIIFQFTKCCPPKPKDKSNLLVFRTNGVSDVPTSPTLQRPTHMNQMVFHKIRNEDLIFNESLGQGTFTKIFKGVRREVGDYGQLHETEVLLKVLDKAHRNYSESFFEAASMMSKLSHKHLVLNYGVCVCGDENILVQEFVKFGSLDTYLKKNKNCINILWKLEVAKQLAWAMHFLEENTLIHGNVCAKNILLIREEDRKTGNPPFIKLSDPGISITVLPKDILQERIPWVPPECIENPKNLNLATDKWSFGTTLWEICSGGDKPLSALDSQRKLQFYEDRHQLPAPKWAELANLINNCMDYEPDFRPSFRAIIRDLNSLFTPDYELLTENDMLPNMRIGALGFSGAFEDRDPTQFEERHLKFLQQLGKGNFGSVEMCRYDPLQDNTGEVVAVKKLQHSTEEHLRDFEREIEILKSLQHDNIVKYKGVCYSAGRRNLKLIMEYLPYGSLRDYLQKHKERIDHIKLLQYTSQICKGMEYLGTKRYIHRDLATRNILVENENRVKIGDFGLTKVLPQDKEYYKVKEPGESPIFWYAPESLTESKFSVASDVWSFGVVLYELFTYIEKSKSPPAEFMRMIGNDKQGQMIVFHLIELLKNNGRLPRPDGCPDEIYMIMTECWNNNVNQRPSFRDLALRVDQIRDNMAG

As usually defined, the pIC50 is −log10 of the IC50, conventionally taken in molar units. In the case of `[2H]C1([2H])C([C@@H](CC(N)=O)n2cc(-c3ncnc4[nH]ccc34)cn2)C([2H])([2H])C([2H])([2H])C1([2H])[2H]` [Compound A, (R)-3-(4-(7H-pyrrolo[2,3-d]pyrimidin-4-yl)-1H-pyrazol-1-yl)-3-(cyclopentyl-2,2,3,3,4,4,5,5-d8) propanamide], the pIC50 at JAK2 and at JAK1 was over 7.00 throughout.

Source of the values: patent US12703704B2, “Process for preparing a composition comprising enantiomerically enriched pyrrolo[2,3-d]pyrimidines” (Sun Pharmaceutical Industries, Inc., priority 2020, dated 2026).
